# In patent US20100310591A1 (priority 2009, published 2010):
# Read-outs that look alike come from different tables or passages of the source. Non-standard residues stand in square brackets, D forms with d. Ava = NCCCCC(=O)O
# Tested on: TPc9.1 T hybridoma with CH27 antigen presenting cells
# Assay: T hybridoma response assay (APC + T hybridoma, HT-2 [3H]TdR uptake readout)
# Format: cell-based, murine
# Details: for EC50: serial 1:4 dilutions from 3 μM, 24 hr stimulation
# Procedure: Biological Activities of Hybrid Peptides [00103) The biological activities of the series of peptides listed in Table I were determined with the T hybridoma response assay. A T cell hybridoma which is specific to the hornworm moth cytochrome C epitope IAYLKQATAK (SEQ ID NO: 8) was stimulated with that antigenic peptide or with members of the series of hybrids of the antigenic peptide and the core Ii-Key sequence listed in Table I. The hybrids were joined with spacers of various lengths. The spacers contained either amino acids in the natural sequence of the Ii protein, or methylene (—CH2—) groups of 5-amino-n-valeric acid (ava; 5-aminopentanoic acid). Cultures of an antigen presenting cell and T cell hybridoma were incubated with serial 1:4 dilutions of the antigenic peptide, from 3 μM. Response was determined by measuring tritiated thymidine uptake by an HT-2 culture to which supernatants of the antigenic stimulation culture (24 hr stimulation period) had been transferred (see, Table 2). The endpoint for half maximal response to Hybrid 1, the antigenic peptide, was about 20 nM. The endpoint for half maximal stimulation with Hybrids 5 and 2 was about 50 pM.
# For this assay the following components were added at the same time of the primary culture: (a) The hybrid peptide containing the antigenic epitope (Table I); (b) mitomycin C-treated, MHC class II-positive antigen presenting cells (APC) with the MHC class II allele required for binding of the specific antigenic peptide and its presentation to the antigenic peptide-specific T cell hybridoma; (c) MHC class II allele-restricted T cell hybridoma specific for the antigenic peptide and the MHC class II allele restricting its presentation. At the end of the incubation of this primary culture, an aliquot of its supernatant was transferred into a second culture well for incubation with an interleukin-dependent lymphoblastoid cell line. The degree of stimulation of that second indicator cell by the interleukins which had been released from the activated T cell hybridoma in the primary culture was measured by quantitating tritiated thymidine deoxyribose {[^3H]TdR} uptake into the DNA of the HT-2 indicator cells of that second culture.
# The hybrids between Ii-Key core sequence LRMK (SEQ ID NO: 3) and PGCC95-104, pigeon cytochrome C 95-104, IAYLKQATAK (SEQ ID NO: 8) are presented by E^k. The peptides were dissolved in phosphate-buffered saline (PBS; 0.01 M sodium phosphate buffer, pH 7.2, 0.1 M NaCl). The solutions were sterilized by filtration. The TPc9.1 T hybridoma is specific for pigeon cytochrome C 81-104 peptide presented on the murine class II MHC allele E^k. The CH27 B cell lymphoma line which expresses H-2^k alleles was used as the antigen presenting cell.
# Antigenic peptide-specific T cell activation was measured by the following procedure. Mitomycin C-treated CH27 cells (A^kE^k) APC were generated by incubating 5.×10^6 cells/mL for 20 min at 37° C. with 0.025 mg/mL of mitomycin C (Sigma) in Dulbecco's Modified Eagle's Medium (DMEM)/10 mM N-2 (hydroxyethylpiperazine-N′[2-ethanesulfonic acid] (HEPES), followed by two washes with four volumes of DMEM-5% fetal calf serum (FCS), 10 mM HEPES. T cell hybridomas were irradiated 2200 rads before each assay.
# For the primary culture assay, 5×10^4 mitomycin C-treated APC, 5×10^4 T hybridoma cells and serial 1:4 dilutions from 3 uM of the peptides containing antigenic epitopes were cultured at pH 7.2-7.4, in complete DMEM-5% FCS, 10 mM HEPES, 1× nonessential amino acids (Sigma), 1 mM sodium pyruvate, 2 mM L-glutamine. 100 U/mL penicillin G, 100 μg/mL streptomycin sulfate, 5×10^−5 M 2-mercaptoethanol (2-ME). Wells containing only T hybridoma cells (T)+APC were included to monitor for background T cell activation; and wells containing T+APC+antigenic peptide were included to monitor for non-specific T hybridoma activation by each AE101 series peptide. […]
# [1] = read-out: endpoint for half maximal stimulation
Substance,activity of hybrid (in words),immunological response to the antigenic epitope (T cell proliferative response) (Conc. 0.01 nM),immunological response to the antigenic epitope (T cell proliferative response) (Conc. 0.05 nM),immunological response to the antigenic epitope (T cell proliferative response) (Conc. 0.18 nM),immunological response to the antigenic epitope (T cell proliferative response) (Conc. 0.73 nM),immunological response to the antigenic epitope (T cell proliferative response) (Conc. 3 nM),immunological response to the antigenic epitope (T cell proliferative response) (Conc. 12 nM),immunological response to the antigenic epitope (T cell proliferative response) (Conc. 47 nM),immunological response to the antigenic epitope (T cell proliferative response) (Conc. 188 nM),immunological response to the antigenic epitope (T cell proliferative response) (Conc. 750 nM),immunological response to the antigenic epitope (T cell proliferative response) (Conc. 3000 nM),EC50 (read-out: endpoint for half maximal response) [nM],EC50 [1] [nM]
Ac-LRMKLPKSAKPVSKIAYLKQATAK-NH2 (SEQ ID NO: 11) [Hybrid 6],sub-optimal activity,2.9 thousands of counts per minute,2.4 thousands of counts per minute,11.9 thousands of counts per minute,28.7 thousands of counts per minute,31.4 thousands of counts per minute,39.2 thousands of counts per minute,25.3 thousands of counts per minute,26.9 thousands of counts per minute,23.4 thousands of counts per minute,21.5 thousands of counts per minute,–,–
"IAYLKQATAK [Hybrid 1, Ac-IAYLKQATAK—NH2 (SEQ ID NO: 8), reference compound]",–,0 thousands of counts per minute,0 thousands of counts per minute,0 thousands of counts per minute,4 thousands of counts per minute,0.4 thousands of counts per minute,10.9 thousands of counts per minute,29.5 thousands of counts per minute,32.4 thousands of counts per minute,27.8 thousands of counts per minute,25.2 thousands of counts per minute,~20,–
Ac-LRMKLPKSIAYLKQATAK-NH2 (SEQ ID NO: 9) [Hybrid 4],–,2.5 thousands of counts per minute,5.8 thousands of counts per minute,9.1 thousands of counts per minute,19.2 thousands of counts per minute,19.0 thousands of counts per minute,23.1 thousands of counts per minute,19.5 thousands of counts per minute,20.8 thousands of counts per minute,23.3 thousands of counts per minute,25.2 thousands of counts per minute,–,–
Ac-LRMK (SEQ ID NO: 3)-5-aminopentanoyl-IAYLKQATAK (SEQ ID NO: 8)-NH2 (Ac-LRMK[Ava]IAYLKQATAK-NH2; SMILES CC[C@H](C)[C@H](NC(=O)CCCCNC(=O)[C@H](CCCCN)NC(=O)[C@H](CCSC)NC(=O)[C@H](CCCNC(=N)N)NC(=O)[C@H](CC(C)C)NC(C)=O)C(=O)N[C@@H](C)C(=O)N[C@@H](Cc1ccc(O)cc1)C(=O)N[C@@H](CC(C)C)C(=O)N[C@@H](CCCCN)C(=O)N[C@@H](CCC(N)=O)C(=O)N[C@@H](C)C(=O)N[C@H](C(=O)N[C@@H](C)C(=O)N[C@@H](CCCCN)C(N)=O)[C@@H](C)O) [Hybrid 2],comparable to those with the natural sequence of Ii protein,3.4 thousands of counts per minute,19.8 thousands of counts per minute,31.2 thousands of counts per minute,38.8 thousands of counts per minute,30.1 thousands of counts per minute,21.9 thousands of counts per minute,20.8 thousands of counts per minute,27.2 thousands of counts per minute,23.9 thousands of counts per minute,25.1 thousands of counts per minute,–,~0.05
LRMKLPKSAKPIAYLKQATAK [Hybrid 5],–,14.3 thousands of counts per minute,21.3 thousands of counts per minute,36.7 thousands of counts per minute,30.1 thousands of counts per minute,31.4 thousands of counts per minute,44.6 thousands of counts per minute,26.2 thousands of counts per minute,29.1 thousands of counts per minute,27.5 thousands of counts per minute,27.3 thousands of counts per minute,–,~0.05
